The text below walks through data of PMC10447463, “Data-mining unveils structure–property–activity correlation of viral infectivity enhancing self-assembling peptides” (Nature Communications, 2023).

“And” between values parts separate entries of the source, which are not always exact repeats. Equal values may be shown once. Read-outs that look alike come from different tables or passages of the source.

The conditions of series [1]: ref sieste 2021 or Schilling2019, cited from earlier work. An excerpt:
Supplement 41467_2023_40663_MOESM7_ESM.zip/FigS17.csv, table | column: Conversion Rate / % ( from sieste 2021 or Schilling2019)

Series [2] deals with HIV-1 infection of TZM-bl cells. The series can be described thus: HIV-1 infectivity enhancement assay, β-galactosidase luminescence. The series is classed as cell-based. The following applies: for Log10 Inf. rel. to EF-C: log10 of HIV-1 infection of TZM-bl cells relative to EF-C, Fig S15 source data, asymmetric std dev errors; for Rel-to EFC / n-fold to virus: Fig S8 panels B, D.

A short description of series [3]: Zeta-potential measurement. The series is classed as physicochemical. The following applies: for Zeta-pot. / mV: zeta potential of peptide, Fig S15 source data. In outline: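 Surface charge of aggregated peptides: 1 mg/mL solutions in PBS (pH 7.4) incubated 1 d at RT, diluted into 1 mM KCl just before reading. Electrophoretic mobility converted to zeta potential by the Smoluchowski formula; triplicate measurements from two separate experiments averaged.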

Series [4] is classed as physicochemical. The following applies: STD prep.
Series [5] is described as follows: β-sheet content by ATR-FT-IR. The series is classed as physicochemical. In outline: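 To obtain β-sheet content, 1 mg/mL PNF solutions are freeze-dried and the powders recorded by ATR FT-IR at 2 cm^-1 resolution with 64 scans. Free monomer for CR is removed by 3 kDa MWCO centrifugation at 4 °C, and amines in filtrate and unfiltered material are detected with fluorescamine.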

Setting [6] is: Feb2021, 1.3 µM value relative to virus only (0 µM).
Setting [7] is: Feb2021, Log10 of infectivity relative to EF-C.
Setting [8] is: Feb2021, n-fold enhancement relative to EF-C.
Where [9] appears, read: Feb2021, n-fold infectivity relative to EF-C.
The mark [10] stands for this setting: Feb2021, unrounded values of the 1.3 µM column.
[11] abbreviates: Feb2021 run, infectivity n-fold relative to virus alone.
Where [12] appears, read: Feb2021 run, log10 of infectivity relative to EF-C.
The mark [13] stands for this setting: Feb2021 run, n-fold infectivity relative to EF-C.
Setting [14] is: infectivity class (low / medium / high) of each library peptide, main list in c1-c6, same classes repeated in sub-lists of sequences containing the hydrophobicity/charge patterns P+,H0,P+,H0,P0,H0,P0, P+,H0,P0,H0,P0,H0,P0, P+,H0,P0,H0.
[15] abbreviates: infectivity class (low / medium / high) of the peptide in the sequence-pattern analysis, Fig. S22-A4, class limits not given.
Setting [16] is: infectivity enhancement relative to EF-C.
[17] abbreviates: infectivity n-fold relative to virus alone.
[18] abbreviates: infectivity enhancement relative to EF-C (=1), Feb2021 run.
Setting [19] is: infectivity n-fold relative to virus only, Feb2021 run.
[20] abbreviates: log10 of infectivity relative to EF-C, Feb2021 run.
Where [21] appears, read: previously reported peptides only.
[22] abbreviates: Feb2021, figures match the 1.3 µM column.
Setting [23] is: Feb2021, infectivity relative to virus only.

As to CKFKFQFNMWQ [BL2], the “Conversion Rate / % ( from sieste 2021 or Schilling2019)” value (“Conversion Rate / %” below) in series [1] is given as 96%. Further, the “n-fold to virus (Feb2021)” value in series [2] (setting [6]) and in series [2] (setting [11]) was 48.74 each time. In addition, the “Log10 of Rel to EFC (Feb2021)” value in series [2] (setting [7]) and in series [2] (setting [12]) was 0.06446 each time. The “Rel-to EFC (Feb-2021)” value in series [2] (setting [8]), in series [2] (setting [9]) and in series [2] (setting [13]) was 1.16 each time. For the same substance, in series [2] (setting [10]), the “Absolute Infectivity / RLU /s (Feb2021)” value is on record as 26320 RLU /s. Further, the infectivity entry in series [2] (setting [14]) and in series [2] (setting [15]) was “high” throughout. In addition, the “Log10 Inf. rel. to EF-C” value in series [2] worked out at 0.06446. The “Zeta category ( +1 = if > 4 mV;-1 = if < -4 mV; 0 = -4mV to 4 mV)” value (shortened to “Zeta category”) in series [3] and in series [3] (category from zeta potential) was 1 (+1 = if > 4 mV) in each case. Moreover, the “Zeta Pot. / mV” value in series [3] (mean, Std Zeta in next column) is listed as 17.03 mV; in series [3] (mean, Std in separate column), 17.03 mV. Besides, in series [3], the “Zeta-pot. / mV” value stood at 17.03 mV. Further, in series [4], the “TEM: 1= fibrils, 0= aggregates (micelle), 0.5 = aggregates and fibrils, -1 = nothing obersved, STD prep” value (“TEM: 1= fibrils, 0= aggregates (micelle)” below) stood at 1. Besides, the “FTIR ß-sheet content/ %” value in series [5] is 47.05%; in series [5] (ATR-FT-IR), 47% and 47.05%.
In the case of CKIKIQI [MG3b], in series [1], the “Conversion Rate / %” value is listed as 54%. Moreover, the “n-fold to virus (Feb2021)” value in series [2] (setting [6]), in series [2] (setting [11]) and in series [2] (setting [19]) was 42.81 throughout. Also, the “Log10 of Rel to EFC (Feb2021)” value came to 0.008101 in series [2] (setting [7]); 0.008101 in series [2] (Feb2021, log10 of infectivity relative to EF-C); 0.008101 in series [2] (setting [12]); 0.008101 in series [2] (setting [20]). Also, the “Rel-to EFC (Feb-2021)” value in series [2] (Feb2021, infectivity enhancement relative to EF-C) was found to be 1.019; in series [2] (setting [8]) it was 1.019; in series [2] (setting [9]), 1.019; in series [2] (setting [13]), 1.019; in series [2] (setting [18]) it was 1.019. In addition, the “Absolute Infectivity / RLU /s (Feb2021)” value in series [2] (setting [10]) is given as 19406.66667 RLU /s. Also, the “Rel-to EFC” value in series [2] (setting [16]) is given as 1.019. Also, in series [2] (setting [17]), the n-fold to virus is 42.81. The infectivity result in series [2] (setting [15]) is given as “high”. For the same substance, the “Log10 Inf. rel. to EF-C” value in series [2] is recorded as 0.0081. In addition, the “Zeta category” value in series [3], in series [3] (FigS26), in series [3] (category derived from the zeta potential) and in series [3] (category from zeta potential) was 1 (+1 = if > 4 mV) each time. Besides, the “Zeta Pot. / mV” value in series [3] (mean, Std Zeta in next column) amounted to 12.8 mV; in series [3] (mean, Std in separate column) it was 12.8 mV. In series [3], the “Zeta-pot. / mV” value is listed as 12.8 mV. Besides, the “TEM: 1= fibrils, 0= aggregates (micelle)” value in series [4] (FigS26) and in series [4] was 1 in each case. Besides, the “FTIR ß-sheet content/ %” value in series [5] and in series [5] (ATR-FT-IR) was 53% throughout.
Take CKIKIQINM [MG2]: the “Conversion Rate / %” value in series [1] is 72%. For the same substance, the “n-fold to virus (Feb2021)” value in series [2] (setting [6]) and in series [2] (setting [11]) was 66.78 in each case. The “Log10 of Rel to EFC (Feb2021)” value in series [2] (setting [7]) and in series [2] (setting [12]) was 0.2012 throughout. The “Rel-to EFC (Feb-2021)” value in series [2] (setting [8]), in series [2] (setting [9]) and in series [2] (setting [13]) was 1.589 in each case. Further, the “Absolute Infectivity / RLU /s (Feb2021)” value in series [2] (setting [10]) turned out to be 30273.33333 RLU /s. Further, the infectivity entry in series [2] (setting [14]) and in series [2] (setting [15]) was “high” in each case. The “Log10 Inf. rel. to EF-C” value in series [2] came out at 0.2012. Besides, the “Zeta category” value in series [3] and in series [3] (category from zeta potential) was 1 (+1 = if > 4 mV) in each case. In addition, the “Zeta Pot. / mV” value in series [3] (mean, Std Zeta in next column) was 16.83 mV; in series [3] (mean, Std in separate column), 16.83 mV. Further, in series [3], the “Zeta-pot. / mV” value was 16.83 mV. Also, in series [4], the “TEM: 1= fibrils, 0= aggregates (micelle)” value was determined as 1. For the same substance, the “FTIR ß-sheet content/ %” value in series [5] is 42.84%; in series [5] (ATR-FT-IR) it was 43% and 42.84%.
Take CKIKIQINMWQ [MG1]: the “Conversion Rate / %” value in series [1] is on record as 87%. In addition, the “n-fold to virus (Feb2021)” value in series [2] (setting [6]) and in series [2] (setting [11]) was 29.41 each time. For the same substance, the “Log10 of Rel to EFC (Feb2021)” value in series [2] (setting [7]) and in series [2] (setting [12]) was -0.155 in each case. Besides, the “Rel-to EFC (Feb-2021)” value in series [2] (setting [8]), in series [2] (setting [9]) and in series [2] (setting [13]) was 0.6998 throughout. Further, the “Absolute Infectivity / RLU /s (Feb2021)” value in series [2] (setting [10]) is 18623.33333 RLU /s. In series [2] (setting [14]), the infectivity entry is recorded as “medium”. Besides, in series [2], the “Log10 Inf. rel. to EF-C” value is -0.155. The “Zeta category” value in series [3] and in series [3] (category from zeta potential) was 1 (+1 = if > 4 mV) in each case. The “Zeta Pot. / mV” value in series [3] (mean, Std Zeta in next column) is 13.87 mV; in series [3] (mean, Std in separate column), 13.87 mV. Also, the “Zeta-pot. / mV” value in series [3] is recorded as 13.87 mV. The “TEM: 1= fibrils, 0= aggregates (micelle)” value in series [4] came to 1. The “FTIR ß-sheet content/ %” value in series [5] is 44.89%; in series [5] (ATR-FT-IR) it was 45% and 44.89%.
For CKIKQII [MG4a], in series [1] (setting [21]), the “Conversion Rate / %” value is 55%. In addition, the “Log10 of Rel to EFC (Feb2021)” value in series [2] (setting [7]), in series [2] (setting [12]) and in series [2] (setting [20]) was -1.379 each time. Moreover, the “Absolute Infectivity / RLU /s (Feb2021)” value in series [2] (setting [22]) was 796.7 RLU /s. Besides, the “n-fold to virus (Feb2021)” value in series [2] (setting [23]), in series [2] (setting [11]) and in series [2] (setting [19]) was 1.757 throughout. Moreover, the “Rel-to EFC (Feb-2021)” value in series [2] (setting [8]), in series [2] (setting [9]), in series [2] (setting [13]) and in series [2] (setting [18]) was 0.04182 in each case. Besides, in series [2] (setting [16]), the “Rel-to EFC” value is reported as 0.04182. Besides, the n-fold to virus in series [2] (setting [17]) worked out at 1.757. Besides, the infectivity result in series [2] (setting [15]) was “low”. For the same substance, in series [2], the “Log10 Inf. rel. to EF-C” value is reported as -1.379. For the same substance, the “Zeta Pot. / mV” value in series [3] is reported as -3.83 mV; in series [3] (mean, Std Zeta in next column), -3.83 mV; in series [3] (mean, Std in separate column) it was -3.83 mV. Further, the “Zeta category” value in series [3] and in series [3] (category from zeta potential) was 0 (0 = -4mV to 4 mV) each time. The “Zeta-pot. / mV” value in series [3] is reported as -3.83 mV. For the same substance, the “TEM: 1= fibrils, 0= aggregates (micelle)” value in series [4] turned out to be 0.5. Further, the “FTIR ß-sheet content/ %” value in series [5] and in series [5] (ATR-FT-IR) was 25% throughout.
For the substance CKIKQIINM [BL1], in series [1] (setting [21]), the “Conversion Rate / %” value is 45%. Also, the “Log10 of Rel to EFC (Feb2021)” value in series [2] (setting [7]) and in series [2] (setting [12]) was -0.3035 throughout. For the same substance, the “Absolute Infectivity / RLU /s (Feb2021)” value in series [2] (setting [22]) is recorded as 11280 RLU /s. Also, the “n-fold to virus (Feb2021)” value in series [2] (setting [23]) and in series [2] (setting [11]) was 20.89 throughout. The “Rel-to EFC (Feb-2021)” value in series [2] (setting [8]), in series [2] (setting [9]) and in series [2] (setting [13]) was 0.4971 in each case. For the same substance, the infectivity result in series [2] (setting [14]) is “medium”. The “Log10 Inf. rel. to EF-C” value in series [2] is -0.3035. Further, the “Zeta Pot. / mV” value was 12.9 mV in series [3]; 12.9 mV in series [3] (mean, Std Zeta in next column); 12.9 mV in series [3] (mean, Std in separate column). The “Zeta category” value in series [3] and in series [3] (category from zeta potential) was 1 (+1 = if > 4 mV) each time. In addition, the “Zeta-pot. / mV” value in series [3] was 12.9 mV. Moreover, the “TEM: 1= fibrils, 0= aggregates (micelle)” value in series [4] came to 1. Moreover, the “FTIR ß-sheet content/ %” value in series [5] and in series [5] (ATR-FT-IR) was 46% each time.
